# Measured values taken from US20070048377A1, “Drug compositions containing controlled release hypromellose matrices” (priority 2005, published 2007).
# Structures can show the parent of a compound that is named as a salt.
# How the values were obtained:
# [1] = Viscosity investigation (Brookfield viscometer DV-II+); type: physicochemical
# Description: • a. Dispersion Characterization • PVAP, HPMC, or Verapamil HCl was dispersed in 0.1N HCl or phosphate buffer, pH 6.8. Viscosity was characterized neat and in binary or tertiary mixtures. • b. Dry Blending Mixtures Characterization • i.
# [2] = Verapamil Hydrochloride and PVAP chemical interaction (precipitate on combining saturated methanol solutions); type: physicochemical; conditions: 50 grams of each combined
# Description: To determine that the influence on the drug release is not due to the chemical interaction between Verapamil HCL and PVAP, following investigation was made.
# • a. Purpose—To determine if change in drug release is due to polymer drug interaction, where increasing PVAP would potentially cause decreased drug release due to binding with the drug. • b. Method— • i. Dissolved 20 grams of Verapamil Hydrochloride in 52 grams of methanol to form a saturated solution. • ii. Dissolved 10 grams of PVAP in 52 grams of methanol to form a saturated solution. • iii. A clear solution was obtained for each sample. • iv. 50 grams of each solution was combined and examined for the presence of a precipitate. • v. […] Conclusion • A lack of chemical interaction has been shown between PVAP and the drug which is contra to some of previously published studies on the interactions of Verapamil HCl with enteric polymers. It also rules out that the reduction of drug release by using PVAP is due to a chemical interaction with Verapamil HCl.
compound,measurement,setting,value
"COc1ccc(CCN(C)CCCC(C#N)(c2ccc(OC)c(OC)c2)C(C)C)cc1OC (stereo not drawn) [Verapamil HCl - 48% solution, Verapamil Hydrochloride]",Viscosity,[1]; 0.1N HCl,50.8 cP
same,Viscosity,"[1]; Phosphate Buffer, pH 6.8",12.4 cP
same,presence of a precipitate (chemical interaction with PVAP),[2],no precipitate formed
